Laboratory results taken from US9480649B2, “Lipid microparticle growth factor formulations” (Biopharm Gesellschaft zur biotechnologischen Entwicklung …, priority 2006, dated 2016).
In brackets after ≈: the same amount, converted by molar mass. Read-outs that look alike come from different tables or passages of the source. Each block holds one compound with its values, some of them ahead of it. Peptide text beside a SMILES is read from it.

Experiments:
[1] = Solubility in water; assay type: physicochemical; settings: based on our own results
[2] = for concentration prepared and stabilized using the lipid microparticle formulation: pH 7
Method: The tube was vortexed briefly. • c. The sample was placed in an ice-ethanol bath to maintain a temperature of approximately 4° C. • d. The tip of a probe sonicator was placed just above the bottom of the microcentrifuge tube. It was confirmed that the sonicator tip was not touching the sides or the bottom of the tube. • e. The sample was sonicated for 2 h at setting 10 on a 25% duty cycle with a period of 20 sec, producing an average power output of 22 watts. • f. The ice-ethanol bath was changed every 12 min to maintain temperature. • g. […] The solution was centrifuged for 4 min at 12,000 rpm to remove any metal particulates left by the probe tip. • i. 1 ml of the LMP was transferred to a clean 1.5 microcentrifuge tube.
Polyphenols are a group of chemical substances found in plants, characterized by the presence of more than one phenol group per molecule. The term comprises tannins, lignins and flavonoids. […] Myricetin (C15H10O8, MW 318.24) is a naturally occurring flavonoid found in many food sources known to have antioxidant and anti-inflammatory properties. […] Despite its therapeutic potential, myricetin has very limited water solubility. […] In an effort to increase the solubility of myricetin to enhance its therapeutic potential, myricetin was incorporated into lipid microparticles as follows: • j. 1 mg myricetin was added to the tube and vortexed to combine. […] The myricetin mixture was again placed over the ice-ethanol bath and fitted with the probe sonicator. • l. The mixture was sonicated on the same settings for 2.5 h, again replacing the ice-ethanol bath every 12-15 min. • m. […] The solution was centrifuged again for 5 min at 12,000 rpm to remove any metal particulates. • o. The solution was then titrated to pH 7 with 1 M NaOH.
In an effort to increase solubility, Vitamin E was incorporated into lipid LMP as follows: • j. 5 uL (4.65 mg) of vitamin E was added to the tube and vortexed to combine. • k. The Vitamin E mixture was placed over the ice-ethanol bath again and fitted with the probe sonicator. • l. The mixture was sonicated on the same settings for 2.5 h, again replacing the ice-ethanol bath every 12-15 min. • m. […] The solution was centrifuged again for 4 min at 12,000 rpm to remove any metal particulates. • o. The solution was then titrated to pH 7 with 1 M NaOH.
In an effort to increase the solubility of Leu-Leu-Leu to enhance it's therapeutic potential, Leu-Leu-Leu was incorporated into lipid microparticles as follows: • j. 8 mg Leu-Leu-Leu was added to the tube and vortexed to combine. […] The Leu-Leu-Leu mixture was again placed over the ice-ethanol bath and fitted with the probe sonicator. • l. The mixture was sonicated on the same settings for 2.5 h, again replacing the ice-ethanol bath every 12-15 min. • m. […] The solution was centrifuged again for 5 min at 12,000 rpm to remove any metal particulates. • o. The solution was then titrated to pH 7 with 1 M NaOH.

[3] = Solubility of GDF-5 in organic solvents (RP-HPLC of supernatant after centrifugation); assay type: physicochemical; settings: dichlormethane, acetonitrile and DMSO solutions, centrifuged
Text: The inventors of the present application have proceeded with an extensive investigation in order to overcome the above described problems. […] Hydrophobic drugs are very often highly soluble in the volatile organic solvents. […] After adding GDF-5, dichlormethane, acetonitrile and DMSO solutions were centrifuged and the GDF-5 content of the supernatant was checked with RP-HPLC.
After adding GDF-5, solutions were centrifuged and the GDF-5 content of supernatant was checked with RP-HPLC.

[4] = cited from earlier work
[5] = rat, in vivo
[6] = tested on: cultured midbrain neurons; settings: cited from earlier work
[7] = cited from earlier work; remark: listed apart in the source

Compound: O=c1c(O)c(-c2cc(O)c(O)c(O)c2)oc2cc(O)cc(O)c12 [myricetin]
solubility [1]: 65 µg/mL (≈ 0.204 mM)
increase of aqueous solubility at neutral pH using the LMP formulation [2]: 15.4 fold
concentration prepared and stabilized using the lipid microparticle formulation ([2]; 2.5 h): 1000 µg/mL

solubility [1]: ~2500 µg/mL (≈ 6.99 mM)
increase of aqueous solubility at neutral pH using the LMP formulation [2]: over three-fold
concentration prepared and stabilized using the lipid microparticle formulation [2]: 8000 µg/mL
Compound: CC(C)C[C@H](NC(=O)[C@H](CC(C)C)NC(=O)[C@@H](N)CC(C)C)C(=O)O [Leu-Leu-Leu] (H-Leu-Leu-Leu-OH; N-terminus and C-terminus assumed)

Compound: growth and differentiation factor-5 [GDF-5]
retrieval percentage of GDF-5 in supernatant [3]: below 15%
pH threshold for solubility ([4]; aqueous solutions of GDF-5): 4.3
pH above which the protein starts precipitating ([4]; aqueous solutions, profile shown in EP 1 462 126): above 4.25
blood exposure, intravenous relative to intranasal [5]: twice as great
midbrain concentration, intravenous relative to intranasal [5]: less than half
concentration at which neuroprotective effects have been demonstrated [6]: 1 nM

increase of aqueous solubility at neutral pH using the LMP formulation [2]: increased greatly
concentration prepared and stabilized using the lipid microparticle formulation [2]: 4650 µg/mL
Compound: Vitamin E

Compound: beta amyloid 1-42
solubility in aqueous solution ([7]; pH 3): very soluble
solubility in aqueous solution ([7]; pH 7): essentially insoluble
solubility in aqueous solution ([7]; physiological pH, e.g., pH 7.4): very low solubility
